molecular target: T1, recombinant human mPGES-1 (Homo sapiens, UniProt O14684); assay: mPGES-1 inhibition test (microsomes, PGH2 substrate, HTRF detection of PGE2); format: biochemical; conditions: not given
T1 construct: made in house; host or cells: Rosetta E. coli (microsomal/membrane fraction)
T1 sequence (O14684 1-152): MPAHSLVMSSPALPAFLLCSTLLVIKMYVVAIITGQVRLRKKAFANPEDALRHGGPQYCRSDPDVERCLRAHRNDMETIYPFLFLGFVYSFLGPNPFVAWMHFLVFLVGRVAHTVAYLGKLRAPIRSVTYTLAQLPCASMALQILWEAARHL
Method in brief: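 First, inhibitor is incubated with microsomal enzyme from Rosetta E. coli in KPi pH 7.4 containing 2.5 mM GSH for 25 minutes at room temperature. Next, PGH2 is added and stopped after one minute with FeCl2 stop solution. Finally, diluted samples undergo HTRF PGE2 quantification.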

`COc1cc2[nH]c(Nc3c(Cl)cccc3Cl)nc2cc1C(=O)NCC(F)(F)C(F)(F)C(F)(F)F` [Example 632, N-(2,2,3,3,4,4,4-heptafluoro-butyl)-2-(2,6-dichlorophenylamino)-6-methoxy-1H-benzimidazole-5-carboxamide] gave an inhibition at 10 µM of 99%.

same assay, conditions: inhibition of mPGES-1 at 1 μM (marked in cell)

Point of comparison: `Cc1ccc(Cl)c(Nc2nc3cc(C(=O)NC4CCCCC4)c(F)cc3[nH]2)c1F` [Example 649, 2-(6-Chloro-2-fluoro-3-methyl-phenylamino)-N-cyclohexyl-6-fluoro-1H-benzimidazole-5-carboxamide], inhibition at 1 µM 96%. Against it:
- COc1cc2[nH]c(Nc3c(Cl)ccc(C)c3F)nc2cc1C(=O)N[C@H]1CC[C@H](C(F)(F)F)CC1 [Example 622, 2-(6-Chloro-2-fluoro-3-methyl-phenylamino)-6-methoxy-N-(4-trans-trifluoromethyl-cyclohex-1-yl)-1H-benzimidazole-5-carboxamide] — the same, 96%
- Cc1ccc(Cl)c(Nc2nc3cc(C(=O)NC4CCCCC4)c(F)cc3n2C)c1F [Example 623, 2-(6-Chloro-2-fluoro-3-methyl-phenylamino)-6-fluoro-N-cyclohexyl-1-methyl-1H-benzimidazole-5-carboxamide] — lower, 93%
- CC(C)Oc1cc2c(cc1C(=O)NC1CCCCC1)nc(Nc1c(Cl)ccc(Cl)c1F)n2C [Example 624, 2-(3,6-Dichloro-2-fluoro-phenylamino)-6-isopropoxy-N-cyclohexyl-1-methyl-1H-benzimidazole-5-carboxamide] — higher, 100%
- CC(C)Oc1cc2c(cc1C(=O)NC1CCC(C)(C)CC1)nc(Nc1c(Cl)ccc(Cl)c1F)n2C [Example 625, 2-(3,6-Dichloro-2-fluoro-phenylamino)-6-isopropoxy-N-(4,4-dimethyl-cyclohex-1-yl)-1-methyl-1H-benzimidazole-5-carboxamide] — higher, 99%
- COc1cc2[nH]c(Nc3c(Cl)ccc(C)c3F)nc2cc1C(=O)NC1CCC(C)(C)CC1 [Example 626] — lower, 92%
- Cc1ccc(Cl)c(Nc2nc3cc(C(=O)NC4CCC(C)(C)CC4)c(F)cc3n2C)c1F [Example 627, 2-(6-Chloro-2-fluoro-3-methyl-phenylamino)-6-fluoro-N-(4,4-dimethyl-cyclohex-1-yl)-1-methyl-1H-benzimidazole-5-carboxamide] — lower, 94%
- COc1cc2[nH]c(Nc3c(Cl)ccc(C)c3F)nc2cc1C(=O)NC1CCCCC1 [Example 628, 2-(6-Chloro-2-fluoro-3-methyl-phenylamino)-6-methoxy-N-cyclohexyl-1H-benzimidazole-5-carboxamide] — higher, 98%
- Cc1ccc(Cl)c(Nc2nc3cc(C(=O)N[C@H]4CC[C@H](C(F)(F)F)CC4)c(F)cc3n2C)c1F [Example 629, 2-(6-Chloro-2-fluoro-3-methyl-phenylamino)-6-fluoro-N-(trans-4-trifluoromethyl-cyclohex-1-yl)-1-methyl-1H-benzimidazole-5-carboxamide] — higher, 99%
- COc1cc2c(cc1C(=O)Nc1ccc(Br)cc1)nc(Nc1cc(C)ccc1C(F)(F)F)n2C [Example 641, 2-(5-Methyl-2-trifluoromethyl-phenylamino)-N-(4-bromphenyl)-6-methoxy-1-methyl-1H-benzimidazol-5-carboxamide] — higher, 97%
- COc1cc2c(cc1C(=O)Nc1ccc(Br)cc1)nc(Nc1cc(F)ccc1C(F)(F)F)n2C [Example 642, 2-(5-Fluoro-2-trifluoromethyl-phenylamino)-N-(4-bromphenyl)-6-methoxy-1-methyl-1H-benzimidazol-5-carboxamide] — higher, 100%
- COc1cc2c(cc1C(=O)N[C@H]1CC[C@H](C(F)(F)F)CC1)nc(Nc1c(Cl)ccc(Cl)c1F)n2C [Example 643, 2-(3,6-Dichloro-2-fluoro-phenylamino)-6-methoxy-N-(trans-4-trifluoromethyl-cyclohex-1-yl)-1-methyl-1H-benzimidazole-5-carboxamide] — higher, 100%
- CC(C)Oc1cc2c(cc1C(=O)NC1CCC(C(F)(F)F)CC1)nc(Nc1c(Cl)ccc(Cl)c1F)n2C (stereo not drawn) [Example 644, 2-(3,6-Dichloro-2-fluoro-phenylamino)-6-isopropoxy-N-(4-trans-trifluoromethyl-cyclohex-1-yl)-1-methyl-1H-benzimidazole-5-carboxamide] — the same, 96%
- COc1cc2c(cc1C(=O)NC1CCC3(CC1)CC3)nc(Nc1c(Cl)ccc(Cl)c1F)n2C [Example 645, 2-(3,6-Dichloro-2-fluoro-phenylamino)-6-methoxy-N-(spiro[2.5]oct-6-yl)-1-methyl-1H-benzimidazole-5-carboxamide] — higher, 100%
- CCOc1cc2[nH]c(Nc3c(Cl)ccc(Cl)c3F)nc2cc1C(=O)NC1CCC2(CC1)CC2 [Example 646, 2-(3,6-Dichloro-2-fluoro-phenylamino)-6-ethoxy-N-(spiro[2.5]oct-6-yl)-1H-benzimidazole-5-carboxamide] — higher, 99%
- COc1cc2c(cc1C(=O)N[C@H]1CC[C@H](C(F)(F)F)CC1)nc(Nc1c(Cl)ccc(C)c1F)n2C [Example 647, 2-(6-Chloro-2-fluoro-3-methyl-phenylamino)-6-methoxy-N-(trans-4-trifluoromethyl-cyclohex-1-yl)-1-methyl-1H-benzimidazole-5-carboxamide] — higher, 97%
- CC(C)Oc1cc2c(cc1C(=O)NC1CCC3(CC1)CC3)nc(Nc1c(Cl)ccc(Cl)c1F)n2C [Example 648, 2-(3,6-Dichloro-2-fluoro-phenylamino)-6-isopropoxy-N-(spiro[2.5]oct-6-yl)-1-methyl-1H-benzimidazole-5-carboxamide] — higher, 100%

same assay, conditions: inhibition of mPGES-1 at 10 μM

Point of comparison: `COc1cc2c(cc1C(=O)Nc1cc(Cl)c(C)cn1)nc(Nc1c(Cl)cccc1Cl)n2C` [Example 634, 2-(2,6-Dichlorophenylamino)-N-(4-chloro-5-methyl-pyridin-2-yl)-6-methoxy-1-methyl-1H-benzimidazole-5-carboxamide], inhibition at 10 µM 97%. Against it:
- CC(C)Oc1cc2[nH]c(Nc3c(Cl)ccc(Cl)c3F)nc2cc1C(=O)Nc1cccc(Cl)c1 [Example 614, 2-(3,6-Dichloro-2-fluoro-phenylamino)-N-(3-chloro-phenyl)-6-isopropoxy-1H-benzimidazole-5-carboxamide] — higher, 100%
- CC(C)Oc1cc2[nH]c(Nc3c(Cl)ccc(Cl)c3F)nc2cc1C(=O)NC1CCC2(CC1)CC2 [Example 615, 2-(3,6-Dichloro-2-fluoro-phenylamino)-6-isopropoxy-N-(spiro[2.5]oct-6-yl)-1H-benzimidazole-5-carboxamide] — lower, 96%
- COc1cc2[nH]c(Nc3c(Cl)ccc(Cl)c3F)nc2cc1C(=O)NC1CCC(C)(C)CC1 [Example 616, 2-(3,6-Dichloro-2-fluoro-phenylamino)-N-(4,4-dimethyl-cyclohex-1-yl)-6-methoxy-1H-benzimidazole-5-carboxamide] — higher, 100%
- COc1cc2[nH]c(Nc3c(Cl)ccc(Cl)c3F)nc2cc1C(=O)N[C@H]1CC[C@H](C(F)(F)F)CC1 [Example 617, 2-(3,6-Dichloro-2-fluoro-phenylamino)-6-methoxy-N-(4-trans-trifluoromethyl-cyclohex-1-yl)-1H-benzimidazole-5-carboxamide] — higher, 100%
- CC(C)Oc1cc2[nH]c(Nc3c(Cl)ccc(Cl)c3F)nc2cc1C(=O)NC1CCC(C)(C)CC1 [Example 618, 2-(3,6-Dichloro-2-fluoro-phenylamino)-6-isopropoxy-N-(4,4-dimethyl-cyclohex-1-yl)-1H-benzimidazole-5-carboxamide] — lower, 91%
- COc1cc2c(cc1C(=O)NC1CCCCC1)nc(Nc1c(Cl)ccc(Cl)c1F)n2C [Example 619, 2-(3,6-Dichloro-2-fluoro-phenylamino)-6-methoxy-N-cyclohexyl-1-methyl-1H-benzimidazole-5-carboxamide] — lower, 94%
- CC(C)Oc1cc2[nH]c(Nc3c(Cl)ccc(Cl)c3F)nc2cc1C(=O)NC1CCC(C(F)(F)F)CC1 (stereo not drawn) [Example 620, 2-(3,6-Dichloro-2-fluoro-phenylamino)-6-isopropoxy-N-(4-trans-trifluoromethyl-cyclohex-1-yl)-1H-benzimidazole-5-carboxamide] — higher, 100%
- COc1cc2c(cc1C(=O)NC1CCC(C)(C)CC1)nc(Nc1c(Cl)ccc(Cl)c1F)n2C [Example 621, 2-(3,6-Dichloro-2-fluoro-phenylamino)-6-methoxy-N-(4,4-dimethyl-cyclohex-1-yl)-1-methyl-1H-benzimidazole-5-carboxamide] — higher, 99%
- COc1cc2[nH]c(Nc3c(Cl)cccc3Cl)nc2cc1C(=O)NCc1ncccc1Cl [Example 630] — higher, 100%
- COc1cc2c(cc1C(=O)NCc1ncccc1Cl)nc(Nc1c(Cl)cccc1Cl)n2C [Example 631] — higher, 100%
- COc1cc2[nH]c(Nc3c(Cl)cccc3Cl)nc2cc1C(=O)Nc1ccc(C(F)(F)F)cn1 [Example 633, 2-(2,6-Dichlorophenylamino)-N-(5-trifluoromethyl-pyridin-2-yl)-6-methoxy-1H-benzimidazole-5-carboxamide] — higher, 99%
- COc1cc2[nH]c(Nc3c(Cl)ccc(CC#N)c3Cl)nc2cc1C(=O)Nc1ccc(Br)cc1 [Example 639, 2-(2,6-Dichloro-3-cyanomethyl-phenylamino)-N-(4-bromphenyl)-6-methoxy-1H-benzimidazol-5-carboxamide] — higher, 99%
- COc1cc2c(cc1C(=O)Nc1ccc(Br)cc1)nc(Nc1cc(C(F)(F)F)ccc1C(F)(F)F)n2C [Example 640, 2-(2,5-Di-(trifluoromethyl)-phenylamino)-N-(4-bromphenyl)-6-methoxy-1-methyl-1H-benzimidazol-5-carboxamide] — higher, 100%

— patent US8916599B2, “1H-benz imidazole-5-carboxamides as anti-inflammatory agents” (Orexo AB, priority 2008, dated 2014)
